Patent US20230398130A1, “METHODS AND COMPOSITIONS FOR DIFFERENTIATING STEM CELLS” (Massachusetts Institute of Technology, priority 2020, published 2023)

Key:
ISC-enriched organoids [1] = assay: Primary screen, 384-well 2.5-D organoid differentiation (ENR+CD, 6 days): carbachol-induced lysozyme secretion (LYZ.S); type: cell-based, murine; conditions: primary screen, ENR+CD 6 days, FC vs plate median
Source text: (§1) High-throughput screening.

ISC-enriched organoids [2] = assay: Primary screen, 384-well 2.5-D organoid differentiation (ENR+CD, 6 days, Target Selective Inhibitor Library, vs whole-plate median): ATP (CellTiter-Glo 3D, CTG); conditions: primary screen; for Dose.FC.CTG: ENR+CD 6 days, FC vs plate median; for Z.CTG: standard z score of FC
ISC-enriched organoids [3] = assay: Primary screen, 384-well 2.5-D organoid differentiation (ENR+CD, 6 days): basal lysozyme secretion (LYZ.NS); type: cell-based, murine; conditions: primary screen; for Dose.FC.LYZ.NS: ENR+CD 6 days, FC vs plate median; for Z.LYZ.NS: standard z score of FC
Source text: as §1

Row | Compound | Dose.FC.LYZ.S (ISC-enriched organoids [1]; dose 0.08 uM) [log 2 fold change] | Dose.FC.LYZ.S (ISC-enriched organoids [1]; dose 0.40 uM) [log 2 fold change] | Dose.FC.LYZ.S (ISC-enriched organoids [1]; dose 2.00 uM) [log 2 fold change] | Dose.FC.LYZ.S (ISC-enriched organoids [1]; dose 10.00 uM) [log 2 fold change] | Dose.FC.CTG (ISC-enriched organoids [2]; dose 0.08 uM) [log 2 fold change] | Z.CTG (ISC-enriched organoids [2]; dose 0.08 uM) | Dose.FC.CTG (ISC-enriched organoids [2]; dose 0.40 uM) [log 2 fold change] | Z.CTG (ISC-enriched organoids [2]; dose 0.40 uM) | Dose.FC.CTG (ISC-enriched organoids [2]; dose 2.00 uM) [log 2 fold change] | Z.CTG (ISC-enriched organoids [2]; dose 2.00 uM) | Dose.FC.CTG (ISC-enriched organoids [2]; dose 10.00 uM) [log 2 fold change] | Z.CTG (ISC-enriched organoids [2]; dose 10.00 uM) | Dose.FC.LYZ.NS (ISC-enriched organoids [3]; dose 0.08 uM) [log 2 fold change] | Z.LYZ.NS (ISC-enriched organoids [3]; dose 0.08 uM) | Dose.FC.LYZ.NS (ISC-enriched organoids [3]; dose 0.40 uM) [log 2 fold change] | Z.LYZ.NS (ISC-enriched organoids [3]; dose 0.40 uM) | Dose.FC.LYZ.NS (ISC-enriched organoids [3]; dose 2.00 uM) [log 2 fold change] | Z.LYZ.NS (ISC-enriched organoids [3]; dose 2.00 uM) | Dose.FC.LYZ.NS (ISC-enriched organoids [3]; dose 10.00 uM) [log 2 fold change] | Z.LYZ.NS (ISC-enriched organoids [3]; dose 10.00 uM)
1 | COc1cc(N2CCN(C)CC2)ccc1Nc1nccc(-c2cn(C)c3cnccc23)n1 [AZ191] | 0.143 | 0.199 | 0.097 | −0.200 | 0.292 | 0.697 | 0.337 | 0.804 | 0.150 | 0.358 | −0.533 | −1.272 | 0.128 | 1.111 | 0.082 | 0.717 | 0.058 | 0.507 | −0.148 | −1.289
2 | COc1cc(OC2CCN(C)CC2)ccc1Nc1ncc2c(n1)n(C1CCCC1)c(=O)n2C [AZ 3146] | 0.049 | −0.067 | −0.130 | −0.422 | −0.130 | −0.310 | −0.262 | −0.626 | −0.369 | −0.881 | −1.168 | −2.789 | 0.073 | 0.639 | −0.038 | −0.327 | −0.079 | −0.687 | −0.281 | −2.447
3 | CC(=O)Nc1cccc2c1c(Sc1ccc(Cl)cc1)c(C)n2CC(=O)O [AZD1981] | 0.023 | 0.191 | 0.014 | 0.070 | 0.400 | 0.955 | 0.285 | 0.681 | 0.099 | 0.236 | 0.238 | 0.570 | 0.009 | 0.081 | 0.001 | 0.008 | 0.001 | 0.011 | 0.024 | 0.205
4 | COC1CCN(C(=O)c2cc(Cc3n[nH]c(=O)c4ccccc34)ccc2F)CC1 [AZD2461] | 0.097 | 0.015 | −0.100 | −0.224 | 0.073 | 0.174 | −0.040 | −0.095 | −0.232 | −0.555 | −0.336 | −0.803 | 0.038 | 0.334 | −0.038 | −0.327 | −0.074 | −0.641 | −0.172 | −1.497
5 | COc1cc(N2CCC(N)CC2)ccc1Nc1ncc(Cl)c(-c2c[nH]c3ccccc23)n1 [AZD3463] | −0.199 | −0.293 | −0.315 | −0.328 | −0.275 | −0.657 | −0.341 | −0.814 | −0.772 | −1.843 | −0.960 | −2.293 | −0.147 | −1.279 | −0.190 | −1.652 | −0.232 | −2.021 | −0.209 | −1.820
6 | Cc1cc([C@@H](C)Nc2ccccc2C(=O)O)c2nc(N3CCOCC3)cc(=O)n2c1 [AZD6482] | 0.182 | 0.156 | −0.114 | −0.253 | 0.240 | 0.572 | 0.223 | 0.533 | −0.509 | −1.215 | −1.203 | −2.874 | 0.108 | 0.944 | 0.076 | 0.660 | −0.130 | −1.129 | −0.248 | −2.160
7 | CN(C)C(=O)c1ccc(S(=O)(=O)c2ccc(NC(=O)[C@@](C)(O)C(F)(F)F)c(Cl)c2)cc1 [AZD7545] | 0.111 | −0.017 | −0.148 | −0.104 | −0.334 | −0.798 | −0.158 | −0.378 | −0.255 | −0.608 | −0.350 | −0.836 | 0.087 | 0.758 | −0.028 | −0.245 | −0.018 | −0.155 | −0.051 | −0.441
8 | NC(=O)Nc1cc(-c2cccc(F)c2)sc1C(=O)N[C@H]1CCCNC1 [AZD7762] | 0.019 | −0.251 | −0.342 | −0.369 | 0.054 | 0.129 | −0.384 | −0.917 | −0.804 | −1.920 | −1.361 | −3.251 | 0.010 | 0.084 | −0.159 | −1.385 | −0.211 | −1.835 | −0.220 | −1.917
9 | COc1cc(F)c(C(C)C)cc1-c1ccc(C(F)(F)F)cc1CN1C(=O)O[C@H](c2cc(C(F)(F)F)cc(C(F)(F)F)c2)[C@@H]1C [Anacetrapib (MK-0859)] | 0.051 | −0.002 | −0.046 | −0.036 | −0.090 | −0.214 | 0.035 | 0.084 | −0.094 | −0.225 | 0.031 | 0.075 | 0.013 | 0.112 | 0.007 | 0.060 | −0.015 | −0.129 | −0.036 | −0.314
10 | O=C1C(=O)N(Cc2ccc(Cl)c(Cl)c2)c2ccccc21 [Apoptosis Activator 2] | 0.132 | 0.073 | −0.009 | −0.252 | 0.304 | 0.725 | 0.262 | 0.626 | 0.082 | 0.195 | −0.158 | −0.378 | 0.149 | 1.302 | 0.033 | 0.290 | −0.006 | −0.049 | −0.199 | −1.734
